We go through four compounds from patent US20140255476A1, “COMPOSITIONS, DEVICES, AND METHODS FOR TREATING INFECTIONS” (University of Washington through its Center for …, priority 2011, published 2014).

A short description of data set [1]: decomposition of calcium hypochlorite under ambient light. It is filed as physicochemical. To be noted: 200 mg/ml, 37° C., without stabilization in alginate-calcium hydrogel. The protocol: In one embodiment, the interactions of calcium hypochlorite and alginate control the release of chlorine over time, which allows prolonged and continuous exposure. Without stabilization of calcium hypochlorite in alginate-calcium hydrogel, calcium hypochlorite at a concentration of 200 mg/ml is decomposed under ambient light within 30 min at 37° C. In a composition containing 1% alginate tested at room temperature (without exposing to light), about 40-50% of chlorine was released over 2 hr test period for all calcium hypochlorite concentrations tested (FIG. 2). […] It is understood that the physical structure of the gel can take the form of particles, sheets, or appropriate structure to optimize the surface suitable for release of the active hypohalite form.

A further data set deals with onychomycosis. To be noted: topical formulations; do not penetrate the nail; cited from earlier work.
Data set [2] deals with XL-1 antibiotic resistant bacteria. The settings on record: 30 and 60 mg/ml, 16 hr and 40 hr. The protocol: FIGS. 11A-11D are images of agar plates seeded with XL-1 antibiotic resistant bacteria comparing the effectiveness of sodium hypochlorite (11A and 11C) and calcium hypochlorite (11B and 11D) at 16 hr (11A and 11B) and 40 hr (11C and 11D). Sodium hypochlorite (11A and 11C): 0, water; 1 30 mg/ml with alginate; 2, 60 mg/ml with alginate; 3, 60 mg/ml without alginate; 4, 30 mg/ml without alginate. Calcium hypochlorite (11B and 11D): 0, water; 1 25 mg/ml with alginate; 2, 50 mg/ml with alginate; 3, 50 mg/ml without alginate; 4, 25 mg/ml without alginate.

Turning to `[Ca+2].[O-]Cl.[O-]Cl` [calcium hypochlorite], the time to decomposition in data set [1] is on record as at most 30 min. As to `Clc1ccccc1C(c1ccccc1)(c1ccccc1)n1ccnc1` [clotrimazole], the effectiveness for onychomycosis entry in the data set on onychomycosis was “totally ineffective”. `CN(C/C=C/C#CC(C)(C)C)Cc1cccc2ccccc12` [terbinafine]: in the data set on onychomycosis, the effectiveness for onychomycosis result is on record as “totally ineffective”. For sodium chlorite, the “effectiveness with vs without alginate” value in data set [2] is recorded as “not affected by the presence of alginate”.
